Values quoted from earlier work in patent US9993560B2, “Rifaximin complexes” (Cipla Limited, priority 2008, dated 2018).

solubility in water (water)	solubility compared with other known forms of rifaximin	SMILES
sparingly soluble	–	CO[C@H]1/C=C/O[C@@]2(C)Oc3c(C)c(O)c4c(O)c(c5c(nc6cc(C)ccn65)c4c3C2=O)NC(=O)/C(C)=C\C=C\[C@H](C)[C@H](O)[C@@H](C)[C@@H](O)[C@@H](C)[C@H](OC(C)=O)[C@@H]1C [rifaximin, (2S, 16Z, 18E, 20S, 21S, 22R, 23R, 24R, 25S, 26S, 27S, 28E)-5,6,21,23,25-pentahydroxy-27-methoxy-2,4,11,16,20,22,24,26-octamethyl-2,7-(epoxypentadeca-[1,11,13]-trienimino)benzofuro-[4,5-e]-pyrido-[1,2-a]-benzimidazole-1,15-(2H)-dione, 25-acetate]
–	least soluble known form of rifaximin	CO[C@H]1/C=C/O[C@@]2(C)Oc3c(C)c(O)c4c(O)c(c5c(nc6cc(C)ccn65)c4c3C2=O)NC(=O)/C(C)=C\C=C\[C@H](C)[C@H](O)[C@@H](C)[C@@H](O)[C@@H](C)[C@H](OC(C)=O)[C@@H]1C [β-form of rifaximin]
